The values that follow come from patent publication US11066396B2 (priority 2016, dated 2021).

Molecules are shown by their SMILES.

The target in experiment [1] is HDAC1 (Homo sapiens (Human), UniProt Q13547). As to conditions: read-out: HDAC1 IC50.
Procedure: Assay protocol: In brief, compounds were titrated in 100% DMSO via accoustic dispensing directly to the assay plate using the ECHO 550 [Labcyte]. HDAC enzymes at the concentrations indicated above were added in assay buffer to the assay plates containing the compounds using a Combi [Thermo Scientific]. The wells were mixed, and the plates were allowed to pre-incubate at ambient temperature for 3 h. After the 3 h, the appropriate substrate, at the concentrations indicated above, was added to the wells using a Combi. The wells were mixed, and the plates were allowed to incubate at ambient temperature for 1 h. After the 1 h, the appropriate Developer/stop solution was added to the wells using a Combi. The wells were mixed, and the plates were allowed to incubate at ambient temperature for 1 h. […] Data were analyzed using 4P curve fitting with Activity Base [IDBS] software.
Experiment [2] concerns the target HDAC8 (Homo sapiens (Human), UniProt Q9BY41). The following applies: read-out: HDAC8 IC50.
The target in experiment [3] is HDAC5 (Homo sapiens (Human), UniProt Q9UQL6). As to conditions: read-out: HDAC5 IC50.
Chain of HDAC5 (Q9UQL6 656-1122): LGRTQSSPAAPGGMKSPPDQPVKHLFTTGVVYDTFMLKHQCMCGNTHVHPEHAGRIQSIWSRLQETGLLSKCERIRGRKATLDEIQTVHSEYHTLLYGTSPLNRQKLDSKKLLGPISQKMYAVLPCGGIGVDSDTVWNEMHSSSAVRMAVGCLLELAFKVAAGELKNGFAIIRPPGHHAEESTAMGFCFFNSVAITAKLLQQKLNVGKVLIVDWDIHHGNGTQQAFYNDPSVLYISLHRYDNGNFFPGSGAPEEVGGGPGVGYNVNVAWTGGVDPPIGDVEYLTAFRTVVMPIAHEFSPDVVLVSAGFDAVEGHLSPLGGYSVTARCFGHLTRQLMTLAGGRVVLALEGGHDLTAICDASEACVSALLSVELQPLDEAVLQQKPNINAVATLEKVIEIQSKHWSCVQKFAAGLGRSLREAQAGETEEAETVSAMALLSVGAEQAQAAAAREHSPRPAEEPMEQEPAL

Chain of HDAC1 (Q13547 whole entry): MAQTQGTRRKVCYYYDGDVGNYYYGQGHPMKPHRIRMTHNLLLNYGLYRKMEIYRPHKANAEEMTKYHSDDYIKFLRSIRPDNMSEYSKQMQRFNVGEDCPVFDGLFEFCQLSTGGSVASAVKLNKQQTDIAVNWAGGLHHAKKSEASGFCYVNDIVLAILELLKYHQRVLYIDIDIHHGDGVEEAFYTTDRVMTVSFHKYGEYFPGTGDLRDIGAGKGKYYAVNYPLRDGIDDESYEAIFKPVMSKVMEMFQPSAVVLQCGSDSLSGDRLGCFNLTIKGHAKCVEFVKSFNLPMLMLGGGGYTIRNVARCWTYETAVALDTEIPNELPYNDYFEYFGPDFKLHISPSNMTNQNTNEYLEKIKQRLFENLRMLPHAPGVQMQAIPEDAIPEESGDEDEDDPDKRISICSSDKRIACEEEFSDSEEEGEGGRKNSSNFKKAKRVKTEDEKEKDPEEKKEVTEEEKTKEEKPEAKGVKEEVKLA
Chain of HDAC8 (Q9BY41 whole entry): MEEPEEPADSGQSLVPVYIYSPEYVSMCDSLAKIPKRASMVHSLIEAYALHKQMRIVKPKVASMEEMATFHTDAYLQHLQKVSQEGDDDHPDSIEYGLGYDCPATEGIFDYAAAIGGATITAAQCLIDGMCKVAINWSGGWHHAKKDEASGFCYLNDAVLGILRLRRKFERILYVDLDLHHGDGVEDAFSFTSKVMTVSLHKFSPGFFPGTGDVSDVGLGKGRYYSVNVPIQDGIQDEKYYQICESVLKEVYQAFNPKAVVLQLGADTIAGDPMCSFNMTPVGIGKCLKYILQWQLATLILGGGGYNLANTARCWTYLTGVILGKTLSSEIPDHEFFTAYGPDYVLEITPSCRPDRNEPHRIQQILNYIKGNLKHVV

`O=C(C1CCOCC1)N(Cc1ccc(-c2noc(C(F)(F)F)n2)cn1)c1cccc(F)c1` [Example 60, N-(3-fluorophenyl)-N-((5-(5-(trifluoromethyl)-1,2,4-oxadiazol-3-yl)pyridin-2-yl)methyl)tetrahydro-2H-pyran-4-carboxamide]: the figures for the IC50 in experiment [1], in experiment [2] and in experiment [3] were 230 nM, 2100 nM and 650 nM, respectively.

Consider `O=C(Cn1cncn1)N(Cc1ccc(-c2noc(C(F)(F)F)n2)cc1)c1cccc(C(F)(F)F)c1` [Example 68, 2-(1H-1,2,4-triazol-1-yl)-N-(4-(5-(trifluoromethyl)-1,2,4-oxadiazol-3-yl)benzyl)-N-(3-(trifluoromethyl)phenyl)acetamide], for which the results for the IC50 in experiment [1], in experiment [2] and in experiment [3] were 690 nM, 2000 nM and 500 nM, respectively.

Regarding `CCc1nnc([C@@H]2CCC(=O)N2c2cc(F)c(-c3noc(C(F)(F)F)n3)cc2F)o1` [Example 105, (S)-1-(2,5-difluoro-4-(5-(trifluoromethyl)-1,2,4-oxadiazol-3-yl)phenyl)-5-(5-ethyl-1,3,4-oxadiazol-2-yl)pyrrolidin-2-one], the IC50 (usually the midpoint of a concentration-inhibition curve) in experiment [1] amounted to 710 nM; in experiment [2] it was 6600 nM; in experiment [3], 18 nM.

`Cn1c([C@@H]2CCC(=O)N2c2ccc(-c3noc(C(F)(F)F)n3)cc2)nc2ccccc21` [Example 108, (S)-5-(1-methyl-1H-benzo[d]imidazol-2-yl)-1-(4-(5-(trifluoromethyl)-1,2,4-oxadiazol-3-yl)phenyl)pyrrolidin-2-one]: the half-maximal inhibitory concentration (IC50) stood at 2000 nM in experiment [1], 2900 nM in experiment [2] and 120 nM in experiment [3].

With `O=C1CCC(c2ccccc2Cl)N1c1ccc(-c2noc(C(F)(F)F)n2)cc1F` (stereo not drawn) [Example 117, 5-(2-chlorophenyl)-1-(2-fluoro-4-(5-(trifluoromethyl)-1,2,4-oxadiazol-3-yl)phenyl)pyrrolidin-2-one], the IC50 in experiment [1] worked out at 1800 nM; in experiment [2], 3100 nM; in experiment [3], 140 nM.

Turning to `Cc1noc([C@@H]2CCC(=O)N2c2ccc(-c3noc(C(F)(F)F)n3)cc2)n1` [Example 122, (S)-5-(3-methyl-1,2,4-oxadiazol-5-yl)-1-(4-(5-(trifluoromethyl)-1,2,4-oxadiazol-3-yl)phenyl)pyrrolidin-2-one], the half-inhibitory concentration (IC50) amounted to 730 nM in experiment [1], 1400 nM in experiment [2] and 21 nM in experiment [3].

As to `CC(C)(C)OC(=O)[C@@H]1CCC(=O)N1c1ccc(-c2noc(C(F)(F)F)n2)c(F)c1F` [Example 124, tert-butyl (S)-1-(2,3-difluoro-4-(5-(trifluoromethyl)-1,2,4-oxadiazol-3-yl)phenyl)-5-oxopyrrolidine-2-carboxylate], the IC50 in experiment [1] is 1300 nM; in experiment [2], 7400 nM; in experiment [3], 17 nM.

For `O=C1COC[C@@H](c2ccccc2)N1c1ccc(-c2noc(C(F)(F)F)n2)cn1` [Example 126, (R)-5-phenyl-4-(5-(5-(trifluoromethyl)-1,2,4-oxadiazol-3-yl)pyridin-2-yl)morpholin-3-one], the half-maximal inhibitory concentration (IC50) in experiment [1] is 1400 nM; in experiment [2] it was 5000 nM; in experiment [3], 190 nM.

With `CC(C)(C)OC(=O)N1C[C@@H](c2cc(F)cc(F)c2)N(c2ccc(-c3noc(C(F)(F)F)n3)cn2)C(=O)C1C1CCOCC1` (stereo partly drawn) [Example 127, tert-butyl (5R)-5-(3,5-difluorophenyl)-3-oxo-2-(tetrahydro-2H-pyran-4-yl)-4-(5-(5-(trifluoromethyl)-1,2,4-oxadiazol-3-yl)pyridin-2-yl)piperazine-1-carboxylate], the IC50 in experiment [1] is 7300 nM; in experiment [2] it was above 45000 nM; in experiment [3] it was 360 nM.

As for `FC(F)(F)c1nc(-c2ccc(N3CCOCC3c3ccccc3Cl)nc2)no1` (stereo not drawn) [Example 130, 3-(2-chlorophenyl)-4-(5-(5-(trifluoromethyl)-1,2,4-oxadiazol-3-yl)pyridin-2-yl)morpholine], the values for the IC50 in experiment [1], in experiment [2] and in experiment [3] were 480 nM, 1500 nM and 74 nM, respectively.

With `FC(F)(F)c1nc(-c2ccc(N3CCOCC3c3cccnc3)nc2)no1` (stereo not drawn) [Example 133, 3-(pyridin-3-yl)-4-(5-(5-(trifluoromethyl)-1,2,4-oxadiazol-3-yl)pyridin-2-yl)morpholine], the IC50 in experiment [1] stood at 160 nM; in experiment [2], 350 nM; in experiment [3] it was 31 nM.

As to `Cc1noc([C@@H]2CCCCN2c2ccc(-c3noc(C(F)(F)F)n3)cn2)n1` [Example 140, (S)-3-methyl-5-(1-(5-(5-(trifluoromethyl)-1,2,4-oxadiazol-3-yl)pyridin-2-yl)piperidin-2-yl)-1,2,4-oxadiazole], the IC50 came to 930 nM in experiment [1], 1000 nM in experiment [2] and 150 nM in experiment [3].

In the case of `O=C1COC[C@@H](c2ccccc2)N1c1cc(F)c(-c2noc(C(F)(F)F)n2)cc1F` [Example 160, (R)-4-(2,5-difluoro-4-(5-(trifluoromethyl)-1,2,4-oxadiazol-3-yl)phenyl)-5-phenylmorpholin-3-one], the results for the IC50 in experiment [1], in experiment [2] and in experiment [3] were 1300 nM, 12000 nM and 3 nM, respectively.

`FC(F)(F)c1nc(-c2ccnc(OCCc3cccc4cn[nH]c34)c2)no1` [Example 167]: the IC50 in experiment [1] was 2500 nM; in experiment [2], 480 nM; in experiment [3] it was 900 nM.

As for `Fc1cc(COc2ccccc2)ccc1-c1noc(C(F)(F)F)n1` [Example 172, 3-(2-Fluoro-4-(phenoxymethyl)phenyl)-5-(trifluoromethyl)-1,2,4-oxadiazole], the values for the half-inhibitory concentration (IC50) in experiment [1], in experiment [2] and in experiment [3] were 45000 nM, 45000 nM and 760 nM, respectively.

In the case of `O=C(C1CCS(=O)(=O)CC1)N(Cc1ccc(-c2noc(C(F)(F)F)n2)nn1)c1cccc(C(F)(F)F)c1` [Example 173, N-((6-(5-(Trifluoromethyl)-1,2,4-oxadiazol-3-yl)pyridazin-3-yl)methyl)-N′-(3-(trifluoromethyl)phenyl)tetrahydro-2H-thiopyran-4-carboxamide 1,1-dioxide], the IC50 is 1100 nM in experiment [1], 6300 nM in experiment [2] and 8300 nM in experiment [3].

Turning to `O=C(NC(Cc1ccc(-c2noc(C(F)(F)F)n2)cn1)c1cccc(C(F)(F)F)c1)C(F)(F)F` (stereo not drawn) [Example 176, 2,2,2-Trifluoro-N-(2-(5-(5-(trifluoromethyl)-1,2,4-oxadiazol-3-yl)pyridin-2-yl)-1-(3-(trifluoromethyl)phenyl)ethyl)acetamide], the IC50 was found to be 1300 nM in experiment [1], 45000 nM in experiment [2] and 320 nM in experiment [3].

Consider `CC(=O)NC(Cc1ccc(-c2noc(C(F)(F)F)n2)cn1)c1cccc(C(F)(F)F)c1` (stereo not drawn) [Example 177, N-(2-(5-(5-(Trifluoromethyl)-1,2,4-oxadiazol-3-yl)pyridin-2-yl)-1-(3-(trifluoromethyl)phenyl)ethyl)acetamide], for which the IC50 came to 530 nM in experiment [1], 4500 nM in experiment [2] and 420 nM in experiment [3].

Consider `CS(=O)(=O)NC(Cc1ccc(-c2noc(C(F)(F)F)n2)cn1)c1cccc(C(F)(F)F)c1` (stereo not drawn) [Example 178, N-(2-(5-(5-(Trifluoromethyl)-1,2,4-oxadiazol-3-yl)pyridin-2-yl)-1-(3-(trifluoromethyl)phenyl)ethyl)methanesulfonamide], for which the figures for the half-maximal inhibitory concentration (IC50) in experiment [1], in experiment [2] and in experiment [3] were 410 nM, 3700 nM and 320 nM, respectively.
